From article PMC2784880 (2009) come the findings set out here.

The experiment deals with T1, trypanothione synthetase-amidase (TRYS) (Trypanosoma brucei, UniProt Q586P2).
T1 sequence (Q586P2 1-627): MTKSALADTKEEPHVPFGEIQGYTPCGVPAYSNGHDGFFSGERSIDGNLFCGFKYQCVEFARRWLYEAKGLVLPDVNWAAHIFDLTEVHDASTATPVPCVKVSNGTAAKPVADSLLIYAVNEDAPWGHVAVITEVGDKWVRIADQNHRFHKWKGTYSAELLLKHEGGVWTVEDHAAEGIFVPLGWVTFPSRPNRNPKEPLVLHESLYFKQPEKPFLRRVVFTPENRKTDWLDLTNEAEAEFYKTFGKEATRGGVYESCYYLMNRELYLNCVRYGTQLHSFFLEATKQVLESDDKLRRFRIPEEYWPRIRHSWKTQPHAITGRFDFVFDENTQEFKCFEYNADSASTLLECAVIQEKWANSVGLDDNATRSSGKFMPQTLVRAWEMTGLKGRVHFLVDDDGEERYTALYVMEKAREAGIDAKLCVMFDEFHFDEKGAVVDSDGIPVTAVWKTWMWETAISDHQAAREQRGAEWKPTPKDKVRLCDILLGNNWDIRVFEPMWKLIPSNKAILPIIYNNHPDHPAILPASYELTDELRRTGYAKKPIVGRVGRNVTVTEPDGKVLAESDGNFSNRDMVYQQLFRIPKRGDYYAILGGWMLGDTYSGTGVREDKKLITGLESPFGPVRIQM
The experiment in a line: inhibition of recombinant TRYS. The class given is biochemical.

In general, IC50 refers to the concentration that inhibits the measured activity by half. As for `CN(C)CCCNC(=O)Cn1nc(-c2cccc(F)c2)c2ccccc21` [DDU 86439, N-(3-(dimethylamino)propyl)-2-(3-(3-fluorophenyl)-1H-indazol-1-yl)acetamide], the IC50 amounted to 45 nM.
